Measurements reported in patent US20070134261A1, “Effectors of innate immunity” (priority 2001, published 2007).
≈ marks a conversion by molar mass, not a printed value. Read-outs that look alike come from different tables or passages of the source. Residues, ends and D or L forms follow the SMILES beside them.

Experiments:
[1] = type: cell-based
[2] = test system: A549 human epithelial cells; test: Induction of chemokines (IL-8, MCP-1) in A549 cells (ELISA); type: cell-based; conditions: peptide 10 ug/ml, 24 hr
Experimental: The murine macrophage cell line RAW 264.7, THP-1 cells (human monocytes), a human epithelial cell line (A549), human bronchial epithelial cells (16HBEo14), and whole human blood were used. HBE cells were grown in MEM with Earle's. THP-1 cells were grown and maintained in RPMI 1640 medium. The RAW and A549 cell lines were maintained in DMEM supplemented with 10% fetal calf serum. […] DMEM was aspirated from cells grown overnight and replaced with fresh medium. After incubation of the cells with peptide, the release of chemokines into the culture supernatant was determined by ELISA (R&D Systems, Minneapolis, Minn.).

BALB/c mice = test: Lethal endotoxemia in galactosamine-sensitized BALB/c mice; type: in vivo; conditions: 2 μg LPS; peptide 200 μg/mouse = 8 mg/kg IP 15 min after LPS; 48 hours; no peptide 10
[3] = test system: human bronchial epithelial cells (HBE); test: LDH release assay (Cytotoxicity Detection Kit); type: cell-based; conditions: 100 μg/ml, 24 hours; no peptide control 1.0 ± 0.05
Summary of the method: (§1)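 Both read-outs were colorimetric at OD490 on HBE cells after 24 h with 100 μg of each peptide. The WST-1 assay reported viability through mitochondrial dehydrogenase cleavage of the tetrazolium salt. The LDH assay tested the removed supernatant for enzyme leaked from membrane-damaged cells.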

[4] = test system: RAW 264.7 mouse macrophage cells; type: cell-based; conditions: Peptide 20 μg/ml; 100 ng/ml E. coli 0111:B4 LPS, 6 h
CD-1 mice = test: Lethal endotoxemia in galactosamine-sensitized CD-1 mice; type: in vivo; conditions: 2 μg LPS; peptide 200 μg/mouse = 8 mg/kg IP 15 min after LPS; 48 hours; control 0
S. aureus = test: Murine S. aureus infection model (CD-1 mice); type: in vivo, mouse; conditions: peptide 200 μg IP; for CFU/ml (blood): 3 days, No Peptide 7.61 ± 1.7 × 10^3; for # Mice Survived (3 days)/Total mice in group: No Peptide 6/8
Experimental: (§2) BALB/c mice were given 1×10^5 Salmonella and cationic peptide (200 μg) by intraperitoneal injection. The mice were monitored for 24 hours at which point they were euthanized, the spleen removed, homogenized and resuspended in PBS and plated on Luria Broth agar plates with Kanamycin (50 μg/ml). The plates were incubated overnight at 37° C. and counted for viable bacteria (Table 49 and 50). CD-1 mice were given 1×10^8 S. aureus in 5% porcine mucin and cationic peptide (200 μg) by intraperitoneal injection (Table 51). The mice were monitored for 3 days at which point they were euthanized, blood removed and plated for viable counts. CD-1 male mice were given 5.8×10^6 CFU EHEC bacteria and cationic peptide (200 μg) by intraperitoneal (IP) injection and monitored for 3 days (Table 52). […] Many of the cationic peptides were shown not to be directly antimicrobial as tested by the Minimum Inhibitory Concentration (MIC) assay (Table 54).

Salmonella = Salmonella infection in BALB/c mice (viable bacteria in spleen); type: in vivo, mouse; conditions: Table 49; peptide 200 μg IP, 24 h; Control 2.70 ± […] 10^5
Experimental: as §2

HBE cells = test: WST-1 assay (cell viability); type: cell-based, human
Summary of the method: as §1

| SMILES | MIC, C. rhod. ([1]; 24 h) [µg/mL] | MIC, E. coli ([1]; 24 h) [µg/mL] | MIC, P. aerug. ([1]; 24 h) [µg/mL] | MIC, S. aureus ([1]; 24 h) [µg/mL] | MIC, S. typhim. ([1]; 24 h) [µg/mL] | IL-8 [2] [ng/mL] | Survival (BALB/c mice) [%] | LDH Release (OD490 nm) [3] [OD490 nm] | Inhibition of TNF-α [4] [%] | MIC, EHEC ([1]; 24 h) [µg/mL] | Survival (CD-1 mice) [%] | CFU/ml (blood) (S. aureus) | # Mice Survived (3 days)/Total mice in group (S. aureus) | Viable Bacteria in the Spleen (Salmonella) | OD490 nm (WST-1 cell viability) (HBE cells; 100 μg/ml, 24 hours, no peptide control 1.63 ± 0.16) [OD490 nm] | MIC, S. aureus ([1]; Staphylococcus aureus, overnight, 96-well plate) | OD490 nm (WST-1 cell viability) (HBE cells) [OD490 nm] |
| --- | --- | --- | --- | --- | --- | --- | --- | --- | --- | --- | --- | --- | --- | --- | --- | --- | --- |
| CC[C@H](C)[C@H](N)C(=O)N[C@@H](CC(C)C)C(=O)N1CCC[C@H]1C(=O)N[C@@H](Cc1c[nH]c2ccccc12)C(=O)N[C@@H](CCCCN)C(=O)N[C@@H](Cc1c[nH]c2ccccc12)C(=O)N1CCC[C@H]1C(=O)N[C@@H](Cc1c[nH]c2ccccc12)C(=O)N[C@@H](Cc1c[nH]c2ccccc12)C(=O)N1CCC[C@H]1C(=O)N[C@@H](Cc1c[nH]c2ccccc12)C(=O)N[C@@H](CCCNC(=N)N)C(=O)N[C@@H](CCCNC(=N)N)C(N)=O [SEQ ID NO: 2] | 64 (≈ 33.6 µM) | 4 (≈ 2.1 µM) | 32 (≈ 16.8 µM) | 16 (≈ 8.39 µM) | 16 (≈ 8.39 µM) |  |  |  |  |  |  |  |  |  |  |  |  |
| CSCC[C@H](NC(=O)[C@H](CO)NC(=O)[C@@H](NC(=O)[C@H](CCCCN)NC(=O)[C@H](Cc1ccccc1)NC(=O)[C@H](CS)NC(=O)[C@H](CO)NC(=O)[C@H](CCCNC(=N)N)NC(=O)[C@@H](N)CCCCN)C(C)C)C(=O)N[C@@H](CCCNC(=N)N)C(=O)NCC(=O)N[C@H](C(=O)N[C@@H](CO)C(=O)N[C@@H](CCCNC(=N)N)C(=O)N[C@@H](CCCNC(=N)N)C(=O)N[C@@H](CCCNC(=N)N)C(=O)N[C@@H](CS)C(=O)N[C@@H](CCCCN)C(=O)O)C(C)C [SEQ ID NO: 27] (H-KRSCFKVSMRGVSRRRCK-OH; N-terminus and C-terminus assumed) | 2 (≈ 0.915 µM) | 8 (≈ 3.66 µM) | 64 (≈ 29.3 µM) | 64 (≈ 29.3 µM) | 16 (≈ 7.32 µM) | 0.346 | 50 | 0.91 ± 0.04 | 51.1 ± 2.8 | 4 (≈ 1.83 µM) | 20 | 2.25 ± 0.1 × 10^2 CFU/ml | 3/4 | 1.01 ± 0.26 × 10^5 CFU/ml | 1.63 ± 0.03 |  |  |
| CC[C@H](C)[C@H](NC(=O)[C@@H]1CCCN1C(=O)[C@H](CS)NC(=O)[C@H](CCCNC(=N)N)NC(=O)[C@@H](N)CC(C)C)C(=O)N[C@@H](C)C(=O)N1CCC[C@H]1C(=O)N[C@H](C(=O)N[C@H](C(=O)N1CCC[C@H]1C(=O)N[C@H](C(=O)N[C@@H](CS)C(=O)N[C@@H](CCCCN)C(=O)N[C@@H](CCCCN)C(=O)O)C(C)C)[C@@H](C)CC)C(C)C [SEQ ID NO: 6] (H-LRCPIAPVIPVCKK-OH; N-terminus and C-terminus assumed) | 64 (≈ 41.6 µM) | 128 (≈ 83.3 µM) |  |  | 128 (≈ 83.3 µM) | 0.181 | 17 | 0.97 ± 0.02 | 59.8 ± 1.2 | 64 (≈ 41.6 µM) | 40 | 1.98 ± 0.05 × 10^2 CFU/ml | 3/4 | 2.57 ± 0.72 × 10^4 CFU/ml |  | > | 1.81 ± 0.05 |
